Measurements reported in publication PMC6499206, “Quantification of Volatile Metabolites Derived From Garlic (Allium sativum) in Human Urine” (Frontiers in Nutrition, 2019).

Assay: Quantification of garlic-derived metabolites in human urine after ingestion of 3 g raw garlic (SIDA, SAFE, HRGC-MS / HRGC-GC-MS)
Format: in vivo
Parameters: metabolite in urine related to creatinine: unit not given here
Details: for highest detected concentration of the sample series: same bulb
Summary of the method: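 Quantification used stable isotope dilution (²H3-AMS, -AMSO, -AMSO2 standards), SAFE distillation at 50°C of DCM-treated urine, and GC-MS on a DB-FFAP column, with creatinine from the Jaffé reaction at 492 nm. Urine came from 18 volunteers avoiding sulfur-rich foods, sampled before and up to 24 h after eating 3 g raw garlic.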

[1] = U VII, 1 h post (1.08 h), 3 g raw garlic
[2] = U VII, 2 h post (2.00 h), 3 g raw garlic
[3] = U VII, 4 h post (4.00 h), 3 g raw garlic
[4] = U VII, 6 h post (6.00 h), 3 g raw garlic
[5] = U VII, 8 h post (8.00 h), 3 g raw garlic
[6] = U VII, 24 h post (24.00 h), 3 g raw garlic
[7] = U VII, pre (-0.25 h), 3 g raw garlic
[8] = U VIII, 0.5 h post (0.52 h), 3 g raw garlic
[9] = U VIII, 1 h post (1.08 h), 3 g raw garlic
[10] = U VIII, 2 h post (2.08 h), 3 g raw garlic
[11] = U VIII, 4 h post (4.07 h), 3 g raw garlic
[12] = U VIII, 6 h post (6.08 h), 3 g raw garlic
[13] = U VIII, 8 h post (7.90 h), 3 g raw garlic
[14] = U VIII, 24 h post (23.83 h), 3 g raw garlic
[15] = U VIII, pre (-0.33 h), 3 g raw garlic
[16] = U X, 0.5 h post (0.53 h), 3 g raw garlic
[17] = U X, 1 h post (1.03 h), 3 g raw garlic
[18] = U X, 2 h post (2.03 h), 3 g raw garlic
[19] = U X, 4 h post (3.85 h), 3 g raw garlic
[20] = U X, 6 h post (5.80 h), 3 g raw garlic
[21] = U X, 8 h post (7.75 h), 3 g raw garlic
[22] = U X, 24 h post (23.97 h), 3 g raw garlic
[23] = U X, pre (-0.07 h), 3 g raw garlic
[24] = U XI, 0.5 h post (0.50 h), 3 g raw garlic
[25] = U XI, 1 h post (1.02 h), 3 g raw garlic
[26] = U XI, 2 h post (2.00 h), 3 g raw garlic
[27] = U XI, pre (-0.08 h), 3 g raw garlic
[28] = U XII, 0.5 h post (0.48 h), 3 g raw garlic
[29] = U XII, 1 h post (1.03 h), 3 g raw garlic
[30] = U XII, 2 h post (1.85 h), 3 g raw garlic
[31] = U XII, 4 h post (3.80 h), 3 g raw garlic
[32] = U XII, 6 h post (5.82 h), 3 g raw garlic
[33] = U XII, 8 h post (7.82 h), 3 g raw garlic
[34] = U XII, 24 h post (23.92 h), 3 g raw garlic
[35] = U XII, pre (-0.08 h), 3 g raw garlic
[36] = U XIII, 0.5 h post (0.42 h), 3 g raw garlic
[37] = U XIII, 1 h post (0.92 h), 3 g raw garlic
[38] = U XIII, 2 h post (1.92 h), 3 g raw garlic
[39] = U XIII, 4 h post (3.92 h), 3 g raw garlic
[40] = U XIII, 6 h post (5.92 h), 3 g raw garlic
[41] = U XIII, 8 h post (7.92 h), 3 g raw garlic
[42] = U XIII, 24 h post (23.92 h), 3 g raw garlic
[43] = U XIII, pre (-0.08 h), 3 g raw garlic

For `C=CCS(C)(=O)=O` [AMSO2, allyl methyl sulfone], the “metabolite concentration in urine” value [1] was 125.9 µg/kg, the “metabolite concentration in urine, creatinine-normalized” value [1] was 78.0 µg/mmol creatinine and the “metabolite concentration in urine” value [2] was 139.9 µg/kg. For the same compound, the “metabolite concentration in urine, creatinine-normalized” value [2] was 143.4 µg/mmol creatinine, the “metabolite concentration in urine” value [3] was 170.5 µg/kg and the “metabolite concentration in urine, creatinine-normalized” value [3] was 105.6 µg/mmol creatinine. For the same compound, the “metabolite concentration in urine” value [4] was 203.6 µg/kg, the “metabolite concentration in urine, creatinine-normalized” value [4] was 65.5 µg/mmol creatinine and the “metabolite concentration in urine” value [5] was 147.2 µg/kg. For the same compound, the “metabolite concentration in urine, creatinine-normalized” value [5] was 75.5 µg/mmol creatinine, the “metabolite concentration in urine” value [6] was 15.7 µg/kg and the “metabolite concentration in urine, creatinine-normalized” value [6] was 4.2 µg/mmol creatinine. For the same compound, the “metabolite concentration in urine” value [7] was 7.0 µg/kg, the “metabolite concentration in urine, creatinine-normalized” value [7] was 2.0 µg/mmol creatinine and the “metabolite concentration in urine” value [8] was 112.9 µg/kg. For the same compound, the “metabolite concentration in urine, creatinine-normalized” value [8] was 143.6 µg/mmol creatinine, the “metabolite concentration in urine” value [9] was 256.0 µg/kg and the “metabolite concentration in urine, creatinine-normalized” value [9] was 154.0 µg/mmol creatinine. The “metabolite concentration in urine” value [10] was 301.1 µg/kg, the “metabolite concentration in urine, creatinine-normalized” value [10] was 284.7 µg/mmol creatinine and the “metabolite concentration in urine” value [11] was 322.0 µg/kg. For the same compound, the “metabolite concentration in urine, creatinine-normalized” value [11] was 152.2 µg/mmol creatinine, the “metabolite concentration in urine” value [12] was 348.3 µg/kg and the “metabolite concentration in urine, creatinine-normalized” value [12] was 92.2 µg/mmol creatinine. The “metabolite concentration in urine” value [13] was 255.0 µg/kg, the “metabolite concentration in urine, creatinine-normalized” value [13] was 92.7 µg/mmol creatinine and the “metabolite concentration in urine” value [14] was 48.3 µg/kg. For the same compound, the “metabolite concentration in urine, creatinine-normalized” value [14] was 18.1 µg/mmol creatinine, the “metabolite concentration in urine” value [15] was 97.6 µg/kg and the “metabolite concentration in urine, creatinine-normalized” value [15] was 21.82 µg/mmol creatinine. For the same compound, the “metabolite concentration in urine” value [16] was 15.5 µg/kg, the “metabolite concentration in urine, creatinine-normalized” value [16] was 8.0 µg/mmol creatinine and the “metabolite concentration in urine” value [17] was 27.7 µg/kg. The “metabolite concentration in urine, creatinine-normalized” value [17] was 35.2 µg/mmol creatinine, the “metabolite concentration in urine” value [18] was 48.6 µg/kg and the “metabolite concentration in urine, creatinine-normalized” value [18] was 72.3 µg/mmol creatinine. The “metabolite concentration in urine” value [19] was 79.1 µg/kg, the “metabolite concentration in urine, creatinine-normalized” value [19] was 60.1 µg/mmol creatinine and the “metabolite concentration in urine” value [20] was 89.3 µg/kg. For the same compound, the “metabolite concentration in urine, creatinine-normalized” value [20] was 37.7 µg/mmol creatinine, the “metabolite concentration in urine” value [21] was 85.2 µg/kg and the “metabolite concentration in urine, creatinine-normalized” value [21] was 36.5 µg/mmol creatinine. For the same compound, the “metabolite concentration in urine” value [22] was 53.0 µg/kg, the “metabolite concentration in urine, creatinine-normalized” value [22] was 4.9 µg/mmol creatinine and the “metabolite concentration in urine” value [23] was “< LOD^3”. For the same compound, the “metabolite concentration in urine, creatinine-normalized” value [23] was “< LOD^3”, the “metabolite concentration in urine” value [24] was 27.5 µg/kg and the “metabolite concentration in urine, creatinine-normalized” value [24] was 33.4 µg/mmol creatinine. For the same compound, the “metabolite concentration in urine” value [25] was 65.7 µg/kg, the “metabolite concentration in urine, creatinine-normalized” value [25] was 82.6 µg/mmol creatinine and the “metabolite concentration in urine” value [26] was 93.5 µg/kg. For the same compound, the “metabolite concentration in urine, creatinine-normalized” value [26] was 122.1 µg/mmol creatinine, the “metabolite concentration in urine” value [27] was 9.0 µg/kg and the “metabolite concentration in urine, creatinine-normalized” value [27] was 2.6 µg/mmol creatinine. The “metabolite concentration in urine” value [28] was 17.3 µg/kg, the “metabolite concentration in urine, creatinine-normalized” value [28] was 2.3 µg/mmol creatinine and the “metabolite concentration in urine” value [29] was 33.1 µg/kg. For the same compound, the “metabolite concentration in urine, creatinine-normalized” value [29] was 33.6 µg/mmol creatinine, the “metabolite concentration in urine” value [30] was 48.2 µg/kg and the “metabolite concentration in urine, creatinine-normalized” value [30] was 72.4 µg/mmol creatinine. For the same compound, the “metabolite concentration in urine” value [31] was 76.1 µg/kg, the “metabolite concentration in urine, creatinine-normalized” value [31] was 28.5 µg/mmol creatinine and the “metabolite concentration in urine” value [32] was 82.8 µg/kg. The “metabolite concentration in urine, creatinine-normalized” value [32] was 14.3 µg/mmol creatinine, the “metabolite concentration in urine” value [33] was 61.4 µg/kg and the “metabolite concentration in urine, creatinine-normalized” value [33] was 21.6 µg/mmol creatinine. For the same compound, the “metabolite concentration in urine” value [34] was 6.6 µg/kg, the “metabolite concentration in urine, creatinine-normalized” value [34] was 0.4 µg/mmol creatinine and the “metabolite concentration in urine” value [35] was 2.0 µg/kg. For the same compound, the “metabolite concentration in urine, creatinine-normalized” value [35] was 0.1 µg/mmol creatinine, the “metabolite concentration in urine” value [36] was 19.8 µg/kg and the “metabolite concentration in urine, creatinine-normalized” value [36] was 12.4 µg/mmol creatinine. For the same compound, the “metabolite concentration in urine” value [37] was 145.0 µg/kg, the “metabolite concentration in urine, creatinine-normalized” value [37] was 58.5 µg/mmol creatinine and the “metabolite concentration in urine” value [38] was 182.5 µg/kg. The “metabolite concentration in urine, creatinine-normalized” value [38] was 52.4 µg/mmol creatinine, the “metabolite concentration in urine” value [39] was 174.3 µg/kg and the “metabolite concentration in urine, creatinine-normalized” value [39] was 36.8 µg/mmol creatinine. For the same compound, the “metabolite concentration in urine” value [40] was 105.0 µg/kg, the “metabolite concentration in urine, creatinine-normalized” value [40] was 9.0 µg/mmol creatinine and the “metabolite concentration in urine” value [41] was 67.5 µg/kg. For the same compound, the “metabolite concentration in urine, creatinine-normalized” value [41] was 7.7 µg/mmol creatinine, the “metabolite concentration in urine” value [42] was 8.5 µg/kg and the “metabolite concentration in urine, creatinine-normalized” value [42] was 1.0 µg/mmol creatinine. For the same compound, the “metabolite concentration in urine” value [43] was “< LOD^3”, the “metabolite concentration in urine, creatinine-normalized” value [43] was “< LOD^3” and the “variation factor of the concentration maxima between test persons” value (Urine XIII-XVI, highest vs lowest maximum) was 2.2. The “highest detected concentration of the sample series” value (from here on “highest detected concentration”) (Urine XIII, 3 g raw garlic) was 58.5 μg/mmol creatinine, the “highest detected concentration” value (Urine XIV (AMS: printed Urine UIV), 3 g raw garlic) was 60.1 μg/mmol creatinine and the “highest detected concentration” value (Urine XV, 3 g raw garlic) was 83.1 μg/mmol creatinine. For the same compound, the “time of highest concentration in urine after garlic consumption” value (Urine XVI, 3 g raw garlic) was 4 h, the “highest detected concentration” value (Urine XVI, 3 g raw garlic) was 37.19 μg/mmol creatinine and the “metabolite in urine related to creatinine” value (shortened to “metabolite in urine related”) (urine set U XIX, 0.5 h post (0.50 h), garlic 3.1133 g) was 4.4. For the same compound, the “metabolite in urine related” value (urine set U XIX, 1 h post (1.00 h), garlic 3.1133 g) was 41.2, the “metabolite in urine related” value (urine set U XIX, 2 h post (2.00 h), garlic 3.1133 g) was 77.6 and the “metabolite in urine related” value (urine set U XIX, 4 h post (4.00 h), garlic 3.1133 g) was 41.4. The “metabolite in urine related” value (urine set U XIX, 6 h post (6.20 h), garlic 3.1133 g) was 30.7, the “metabolite in urine related” value (urine set U XIX, 8 h post (7.93 h), garlic 3.1133 g) was 24.3 and the “metabolite in urine related” value (urine set U XIX, 24 h post (23.98 h), garlic 3.1133 g) was 1.8. The “metabolite in urine related” value (urine set U XIX, pre (-0.07 h), garlic 3.1133 g) was “< LOD^3”, the “metabolite in urine related” value (urine set U XVII, 0.5 h post (0.58 h), garlic 3.1559 g) was 0.3 and the “metabolite in urine related” value (urine set U XVII, 1 h post (1.00 h), garlic 3.1559 g) was 4.7. The “metabolite in urine related” value (urine set U XVII, 2 h post (2.17 h), garlic 3.1559 g) was 32.1, the “metabolite in urine related” value (urine set U XVII, 4 h post (4.00 h), garlic 3.1559 g) was 27.6 and the “metabolite in urine related” value (urine set U XVII, 6 h post (6.08 h), garlic 3.1559 g) was 3.0. The “metabolite in urine related” value (urine set U XVII, 8 h post (8.00 h), garlic 3.1559 g) was 5.1, the “metabolite in urine related” value (urine set U XVII, 24 h post (23.92 h), garlic 3.1559 g) was 0.7 and the “metabolite in urine related” value (urine set U XVII, pre (-0.08 h), garlic 3.1559 g) was “traces^3”. The “metabolite in urine related” value (urine set U XVIII, 0.5 h post (0.63 h), garlic 3.1981 g) was 14.7, the “metabolite in urine related” value (urine set U XVIII, 1 h post (1.05 h), garlic 3.1981 g) was 40.5 and the “metabolite in urine related” value (urine set U XVIII, 2 h post (2.00 h), garlic 3.1981 g) was 68.1. The “metabolite in urine related” value (urine set U XVIII, 4 h post (3.97 h), garlic 3.1981 g) was 56.4, the “metabolite in urine related” value (urine set U XVIII, 6 h post (5.97 h), garlic 3.1981 g) was 26.3 and the “metabolite in urine related” value (urine set U XVIII, 8 h post (8.30 h), garlic 3.1981 g) was 42.2. The “metabolite in urine related” value (urine set U XVIII, 24 h post (24.13 h), garlic 3.1981 g) was 1.3 and the “metabolite in urine related” value (urine set U XVIII, pre (-0.08 h), garlic 3.1981 g) was “< LOD^3”.
